In one data set the test system is Drosophila melanogaster. As to conditions: cited from earlier work.
Data set [1] deals with T1, dTRPA1 (Drosophila melanogaster, UniProt Q7Z020).
T1 sequence (Q7Z020 1-1197): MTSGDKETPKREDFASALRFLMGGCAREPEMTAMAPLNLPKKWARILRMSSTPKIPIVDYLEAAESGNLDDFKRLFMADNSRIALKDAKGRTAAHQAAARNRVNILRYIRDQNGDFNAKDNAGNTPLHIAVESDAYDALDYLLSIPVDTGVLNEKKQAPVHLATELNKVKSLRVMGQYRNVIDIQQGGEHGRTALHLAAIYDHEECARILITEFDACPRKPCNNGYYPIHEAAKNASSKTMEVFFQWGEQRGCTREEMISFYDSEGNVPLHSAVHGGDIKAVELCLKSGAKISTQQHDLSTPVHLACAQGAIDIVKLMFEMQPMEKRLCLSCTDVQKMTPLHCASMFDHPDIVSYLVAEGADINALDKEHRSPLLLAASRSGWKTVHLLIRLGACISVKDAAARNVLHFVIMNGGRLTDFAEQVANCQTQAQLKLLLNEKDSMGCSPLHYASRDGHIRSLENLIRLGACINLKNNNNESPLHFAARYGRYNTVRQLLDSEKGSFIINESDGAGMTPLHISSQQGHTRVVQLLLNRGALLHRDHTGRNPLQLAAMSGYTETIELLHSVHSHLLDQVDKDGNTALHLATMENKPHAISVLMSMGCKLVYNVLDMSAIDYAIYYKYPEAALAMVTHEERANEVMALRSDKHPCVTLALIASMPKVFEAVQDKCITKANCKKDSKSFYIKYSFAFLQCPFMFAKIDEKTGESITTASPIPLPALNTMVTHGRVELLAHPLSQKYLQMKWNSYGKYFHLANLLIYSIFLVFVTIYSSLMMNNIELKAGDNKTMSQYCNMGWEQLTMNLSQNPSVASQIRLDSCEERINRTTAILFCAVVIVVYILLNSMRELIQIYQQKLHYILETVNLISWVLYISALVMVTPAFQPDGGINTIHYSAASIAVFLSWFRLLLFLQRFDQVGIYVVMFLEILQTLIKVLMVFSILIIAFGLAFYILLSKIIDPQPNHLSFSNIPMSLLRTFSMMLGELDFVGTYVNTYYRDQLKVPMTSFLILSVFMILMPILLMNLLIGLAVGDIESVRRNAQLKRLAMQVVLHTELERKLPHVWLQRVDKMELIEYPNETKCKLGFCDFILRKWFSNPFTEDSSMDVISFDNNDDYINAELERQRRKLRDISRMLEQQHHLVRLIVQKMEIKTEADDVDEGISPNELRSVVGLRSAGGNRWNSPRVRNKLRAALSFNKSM
In words: Agonist-evoked dTRPA1 currents, two-electrode voltage clamping on Xenopus laevis oocytes. It is filed as cell-based. To be noted: for activation of wild-type dTRPA1 channel currents: 100 μM, applied 60-80 sec, currents at -60 and +60 mV. The method, then:
(§1) Two-electrode voltage clamping on Xenopus laevis oocytes: Agonist-evoked dTRPA1 currents were recorded as previously described (52), with the following modifications. Agonists of interest were added to the oocyte perfusion buffer (96 mM NaCl, 1 mM MgCl2, 4 mM KCl, and 5 mM HEPES, pH 7.6). Voltage was initially held at −60 mV, and each 300-ms voltage ramp (−60 mV to 60 mV) per sec was applied to dTRPA1- or AgTRPA1-expressing oocytes during perfusion of agonist-containing buffer. Typical resting membrane potentials of oocytes used were between −25 and −60 mV.
For orientation: In two-electrode clamp one electrode senses voltage and the other passes current.

The subject of data set [2] is D. melanogaster flies. Briefly: Proboscis extension response (PER) assay, solution contact with labellum. It is filed as in vivo, Drosophila melanogaster. The text has this:
Proboscis extension response (PER) assay: As reactive electrophiles are commonly encountered as defensive agents present in food sources, we also examined AITC sensing in the context of fly feeding. Flies aged two to seven days were starved on wet Kim wipes overnight, knocked out on ice, and glued (Elmer's glue) by their wings on a glass slide. Flies recovered in a humidified chamber at least for 2 hrs at room temperature prior to assay. At the beginning of PER assay, the fly was satiated with water. […] When the proboscis was extended and maintained the contact for 2-3 sec with the presented food, it was scored as 1. If the contact is only brief or proboscis stuttered on the tastant, 0.5 was given as the score. When the proboscis never made contact within 5 sec, 0 was given. Each fly was offered five times per experiment, and between offerings water was given to satiation. As AITC was always accepted on first offering, frequency of PER was calculated as a fraction obtained from the […] offerings (sum of four scores divided by 4). For leg only PER assays, the procedures are same as above except that the flies tested were not allowed to contact with the offered food with proboscis, with either 12% sucrose or a mixture of 2 mM AITC/12% sucrose was offered ten times.

A further data set has as its system D. melanogaster adults. Briefly: Vapor avoidance assay (choice between AITC tube and DMSO tube). It is filed as in vivo, Drosophila melanogaster. To be noted: dTrpA1 loss-of-function mutants, P<0.0001. The method, then:
Vapor avoidance assay: One to three day-old flies were collected, knocked out by CO2, and kept on a fresh food at least 24 hrs before use. Choice apparatus was as previously described (3). ˜200 mM AITC was prepared daily by diluting 1 part of 99% AITC (Sigma) in 49 parts of DMSO. 1 microliter of diluted AITC was placed on the tip of 16-gauge needle (plugged by bending), inserted in bottom of a capped 14-ml polypropylene tube and allowed to diffuse for 2 min prior to use. 1 microliter of DMSO alone was placed on a needle tip inserted into the other 14-ml tube. During diffusion period, flies were transferred to the apparatus held within the fly elevator. After diffusion period, AITC tube was uncapped and inserted one opening of the choice chamber, other opening contained vehicle only tube. […] AITC and vehicle only sides were alternated to offset any bias caused by possible asymmetric condition. Avoidance index was calculated by subtracting the fraction of flies in AITC tube from fraction in vehicle alone tube.

A further data set relates to dTRPA1-2C. In words: AITC-evoked currents of dTRPA1-2C mutant channel in oocytes. The data set is classed as cell-based, Drosophila melanogaster. As to conditions: 0.1 and 0.5 mM AITC normalized to 1.0 mM, -60 mV. As to the method: as §1
Substitutions of cysteine/lysine residues in dTrpA1 were made by swapping a region of wild type cDNA sequence including codons of cysteine or lysine with mutated cassettes. A pair of mutually complemetary oligonucleotide primers with a desired mutation were prepared, and each of them was paired with upstream or downstream primers for the first two PCR reactions. The resulting two PCR fragments overlap in the mutant primer-annealing region that contains the replaced codons, and served as template for the second PCR reaction amplified only with the upstream and down stream primers. The upstream and down stream primers were designed to be just outside of specific restriction endonuclease target sites that were used to clone the second PCR products back in the wild type dTrpA1 cDNA background sequence. […]

The test system of the next data set is flies. Briefly: Ingestion of AITC-laden food over a 60 minute period. It is filed as in vivo, Drosophila. As to conditions: well before the end of the 60 minute assay.
Data set [3] concerns agTRPA1. In words: Agonist-evoked agTRPA1 currents, two-electrode voltage clamping on Xenopus laevis oocytes. The data set is classed as cell-based, Anopheles gambiae. To be noted: 100 μM. As to the method:
as §1

The subject of data set [4] is D. melanogaster flies. Briefly: Leg only PER assay. The data set is classed as in vivo, Drosophila melanogaster. As to conditions: 2 mM AITC/12% sucrose. The text has this: Proboscis extension response (PER) assay: As reactive electrophiles are commonly encountered as defensive agents present in food sources, we also examined AITC sensing in the context of fly feeding. Flies aged two to seven days were starved on wet Kim wipes overnight, knocked out on ice, and glued (Elmer's glue) by their wings on a glass slide. Flies recovered in a humidified chamber at least for 2 hrs at room temperature prior to assay. At the beginning of PER assay, the fly was satiated with water. Next, solution containing tastants was presented to the fly as a liquid ball on a pipette tip, touching the forelegs only. When the proboscis was extended and maintained the contact for 2-3 sec with the presented food, it was scored as 1. If the contact is only brief or proboscis stuttered on the tastant, 0.5 was given as the score. When the proboscis never made contact within 5 sec, 0 was given. Each fly was offered five times per experiment, and between offerings water was given to satiation. As AITC was always accepted on first offering, frequency of PER was calculated as a fraction obtained from the […] offerings (sum of four scores divided by 4). […]

For data set [5], the target named is T1, dTRPA1. In words: Warmth-evoked currents in dTRPA1-expressing Xenopus laevis oocytes (two electrode voltage clamp). It is filed as cell-based. To be noted: 50 micromolar Ruthenium Red, -60 mV. As to the method:
(§2) Oocyte-positive Xenopus laevis females were obtained from Nasco (Ft. Atkinson, Wis.), and maintained at ˜19° C. with 12 h/12 h dark/light cycles. Ovaries were surgically isolated, and treated with 1.5 mg/ml of collagenase type II (Worthington, Lakewood, N.J.) for 90 min, and individual oocytes were defolliculated with a pair of forceps. cRNA was transcribed by mMessage mMachine T3 kit (Ambion, Austin, Tex.) from each cDNA construct, and 50 nl aliquot per oocyte was injected using an automatic Drummond microinjector. (agTRPA1 sequence deposited as Genbank #108 1610.) Membrane potential was maintained at −60 mV by two electrode voltage clamping (TEVC) during warm-activated current recording. Resistance of pulled glass capillary electrodes filled with 3 M KCl was between 0.5 and 1.5 MΩ. Typical resting membrane potentials of oocytes used for current recording were between −25 and -60 mV. Current was recorded at 2 kHz and filtered to 1 kHz with the output filter of the amplifier (OC-725B, Warner instruments, Hamden, Conn.). […] Each voltage step lasted 100 ms following 10 ms holding at −60 mV, and the recorded current in the last 40 ms was averaged to determine the current amplitude at a given voltage.

Data set [6] relates to agTRPA1. Briefly: Warmth-evoked currents in agTRPA1-expressing Xenopus laevis oocytes (two electrode voltage clamp). It is filed as cell-based, Anopheles gambiae. To be noted: 50 micromolar Ruthenium Red, -60 mV. As to the method: as §2
For data set [7], the system named is motor neurons expressing dTRPA1. In words: Larval neuromuscular junction electrophysiology (EJPs in muscle 6). It is filed as cell-based, Drosophila melanogaster. From the text: Larval neuromuscular junction electrophysiology: dTRPA1 was expressed in larval motor neurons using OK371-GAL4, a driver specific for glutamatergic neurons (Aberle et al., 2006) as described (61). In all preparations, the ventral ganglion was dissected away, leaving only motor axons and terminals. Larval muscle 6 (m6) was impaled with a sharp electrode (10-20 MO) containing 3M KCl. Resting membrane potentials were typically between −40 and −50 mV. Saline was perfused over the preparation, then increasing concentrations of cinnemaldehyde applied using a custom built gravity perfusion system. EJP frequency was measured-30 sec after application of each concentration using analysis scripts in Spike 2 (Cambridge Electronic Design, Cambridge, UK).

Structures are written as SMILES.

These results are taken from patent US20110151018A1, “METHODS OF INSECT CONTROL” (BRANDEIS UNIVERSITY, priority 2008, published 2011).

On to `C=CCN=C=S` [AITC, allyl isothiocyanate], for which the “toxicity and mutagenicity to the fruit fly” value in the data set with Drosophila melanogaster is “toxic and mutagenic”. In addition, the “activation of wild-type dTRPA1 channel currents” value at dTRPA1 [1] is “robustly activated”. Besides, in the data set on D. melanogaster flies [2] (12% sucrose containing 2 mM AITC, labellum), the “PER upon the first offering” value is listed as “All flies also exhibited a PER”. In addition, the “PER triggered by the four subsequent offerings” value in the data set with D. melanogaster flies [2] (control flies, 12% sucrose containing 2 mM AITC, labellum (sucrose alone 95%)) is 33%. For the same compound, the “PER in response to multiple offerings” value with D. melanogaster flies [2] (dTrpA1 mutants, sucrose containing AITC) is “no reduction in PER”. The “AITC vapor avoidance compared to control” value in the data set on D. melanogaster adults is on record as “significantly reduced AITC avoidance”. For the same compound, the “AITC sensitivity of dTRPA1-2C compared to wild type dTRPA1” value with dTRPA1-2C is reported as “significantly decreased AITC sensitivity”. Moreover, the “incapacitation of flies on exposure” value in the data set with flies is recorded as “incapacitated all flies”. Besides, the “activation of agTRPA1 channel currents” value in the data set with agTRPA1 [3] is on record as “robust responses”. Also, in the data set on D. melanogaster flies [4], the “effect on PER elicited by contact of 12% sucrose solution with the legs” value is given as “no detectable effects”.
Take `N.N.N.N.N.N.N.N.N.N.N.N.N.N.[Cl-].[Cl-].[Cl-].[Cl-].[Cl-].[Cl-].[O-2].[O-2].[Ru+3].[Ru+3].[Ru+4]` [Ruthenium Red, ruthenium red]: the “inhibition of electrophile-evoked dTRPA1 currents” value on dTRPA1 [1] (100 μM RR) is reported as “inhibited”. For the same compound, the “inhibition of warmth-activated dTRPA1 currents” value on dTRPA1 [5] was “inhibited”. In addition, the “inhibition of warmth-activated agTRPA1 currents” value with agTRPA1 [6] was “inhibited”.
With `C=CC=O` [acrolein], the “toxicity and mutagenicity to the fruit fly” value in the data set with Drosophila melanogaster is “toxic and mutagenic”. The “activation of wild-type dTRPA1 channel currents” value on dTRPA1 [1] is on record as “robustly activated”.
Take `Cn1c(=O)c2c(ncn2C)n(C)c1=O` [caffeine]: in the data set with D. melanogaster flies [2] (caffeine-mediated), the “inhibition of the PER, dTrpA1 mutants versus controls” value was “indistinguishable”.
Consider `O=CC=Cc1ccccc1` [cinnamaldehyde], for which, on dTRPA1 [1], the “activation of wild-type dTRPA1 channel currents” value is recorded as “robustly activated”. Besides, the “response of control motor neurons” value in [7] (genetic controls without dTRPA1) is “unresponsive”. Also, the “activation of motor neurons expressing dTRPA1 (EJPs in target muscles)” value in data set [7] (ok371-Gal4 driven dTRPA1, 3rd instar larvae) is recorded as “robustly activated”.
